Test results from patent publication US7803764B2, “Amphipathic glycopeptides” (The Arizona Board of Regents on Behalf of the University of …, priority 2004, dated 2010).
Entries after “also recorded” stand apart in the source; their conditions may differ.

Key:
water solubility = settings: H2O
δ opioid receptor = δ opioid receptor (Homo sapiens, UniProt P41143); experiment: opioid receptor binding, δ receptor
[1] = in vivo antinociception after i.c.v. administration; design: species or system mice; settings: for A50 i.c.v.: antinociception
μ opioid receptor = μ opioid receptor (Homo sapiens, UniProt P35372); experiment: opioid receptor binding, μ receptor
[2] = helicity by circular dichroism; assay type: physicochemical; settings: for % α-helicity: CD, SDS micelles (30 mM), pH = 7.0, 18° C.
Experimental: Circular Dichroism. All of the circular dichroism experiments were carried out on Aviv Associates model 60DS using an Endcal Model RTE4DD water circulator as a temperature-control vehicle. The instrument was calibrated by using d-10-camphorsulphonic acid. The spectra were recorded between 200 and 250 nm by using the continuous mode with a 1.5 nm bandwidth, a three second response and a scan step of 0.5 nm in a cell with a path length of 0.1 cm. Three or five scans were accumulated and averaged for each spectrum. Glycopeptide stock solutions were prepared by weighing the required amount, using Cahn/Ventron Instruments Model 21 automatic analytical electrobalance, to make 1 mL of a 0.5-1.0 mM solution and the pH was adjusted to the desired value. Samples were prepared by diluting the stock solution to 70-80 μM. All observed spectra were baseline-subtracted and smoothed by adjacent average of 5 points using Microcal Origin Ver. 5.0 software (Microcal Software Inc, USA). The molar ellipticities were determined using the formula [θ]=[θ]obs·(MRW)/10·l·C, where [θ]obs observed ellipticity in millidegrees, MRW is the mean residue weight, l is the cell path length in centimeters and C is the glycopeptide concentration in mg/mL. The percent α-helicity was determined by using the formula % helix=[θ]n→π*/−40,000 (1−2.5/n)·100, where n represents the number of amide bonds (including the C-terminal amide) in the glycopeptide and [θ]n→π** is molar ellipticity of n→π* transition band at 222 nm.^55
Conformational Analysis by CD. Circular dichroism (CD) is a powerful and simple tool for identifying secondary structure in both peptides and proteins.^64 All the peptides were subjected to CD analysis in H2O, TFE-H2O mixtures, SDS micelles and phospholipid bicelles. In H2O, a negative band near 200 nm is observed that arises from the π→π* electronic transition and is typical of random coil peptides. […] This behavior is explained as nascent helices.^65 In these nascent helices, helix CD signals could be induced by the addition of TFE.^66 All the glycopeptides gave an increased helix CD signal in TFE. The percentage of helicity increases as TFE concentration increases, but reached a maximum at 30% TFE. The increase in helicity in TFE can be attributed to decreased competition by H2O for hydrogen bonding to the backbone amides. […] In the presence of SDS micelles and anionic bicelles, the band at 200 nm underwent a red shift (higher value) and an additional shoulder appears around 222 nm as a result of the n→π* transition. […] The negative maxima at 222 nm (n→π* transition band) is used to calculate the helical content of polypeptides and proteins. The accepted value for a peptide that is 100% helical is approximately −35,000. It was observed that changes in amplitude of the bands up to 30% depend on length of helix.^67 The amplitude increases as α-helical chain length increases. Therefore, one has to consider the importance of chain-length dependence of the α-helix CD in the quantitative treatment of helix content in proteins and polypeptides. The percentage of helicity is independent of SDS concentration and pH (data not shown). In the presence of zwitterionic bicelles all of the glycopeptides yielded CD spectra similar to that observed in H2O, but anionic bicelles forced them to become more helical. The intensities of the [θ]π→π* band and the [θ]n→π* band are expected to be almost equal for a perfect α-helical peptide. […] A modest blue shift and reduced intensity for the [θ]n→π* transition bands are observed for all the glycopeptides in TFE. […] The glycopeptides 9 (Pro/Glc) and 12 (Pro/Lactose), which differ only by the sugar moiety attached, adopt perfect helices in the presence of SDS micelles and in anionic bicelles. The disaccharide increased the percentage of helicity in all the solvents, relative to the monosaccharide. […] It is remarkable to note that a single amino acid mutation at position 6 produced profound changes in the CD spectra. […]

[3] = Plasmon-waveguide resonance (PWR) binding to lipid bilayer; settings: egg PC bilayer, 25° C., read-out: dissociation constant KD for lipid bilayer
Experimental: Plasmon-waveguide resonance (PWR) spectroscopy. The PWR instrument used for these experiments was Aviv Beta prototype version device obtained from Proterion Corp. (Piscataway, N.J.) having a spectral resolution of 1 millidegree. Self-assembled so lid-supported lipid membranes were prepared according to the method used for the formation of freely suspended lipid bilayers.^62 This involves spreading a small amount of lipid solution across an orifice in a Teflon sheet that separates the thin dielectric film (SiO2) from the aqueous phase. The hydrophilic surface of hydrated SiO2 attracts the polar groups of the lipid molecules, thus inducing an initial orientation of the lipid molecules, with the hydrocarbon chains pointing toward the droplet of excess lipid solution. The next steps of bilayer formation, induced by adding aqueous buffer to the sample compartment of the PWR cell, involve a thinning process and the formation of a plateau-Gibbs border of lipid solution that anchors the membrane to the Teflon spacer. In the present experiments, the lipid films were formed from a solution containing 5 mg/ml egg phosphatidylcholine (PC) in squalene/butanol/methanol (0.05:9.5:0.5, v/v). […] Aliquots of the glycosylated peptides, dissolved in deionized water, were injected stepwise in the PWR cell sample and the signal monitored until equilibrium was reached (PWR signal steady). […]

[4] = blood-brain barrier uptake / penetration; settings: mice
[5] = helicity by NMR αCH chemical shift index; assay type: physicochemical
Experimental: NMR Spectroscopy. All NMR spectra were recorded on a Bruker DRX600 600 MHz spectrometer. Glycopeptide concentration for the NMR experiments varied from 2-3 mM. The glycopeptides were prepared in TFE-water solution by dissolving the peptide in 0.6 ml solution of a premixed 30% TFE-water mixture. The micelle samples were prepared by dissolving the glycopeptide and 100 equivalent of perdeuterated SDS in 0.6 ml of H2O/D2O (9:1 ratio by volume). Bicelles were produced from deuterated phospholipids. The zwitterionic bicelles were made by mixing the short chain phospholipid dihexanoyl-sn-glycero-3-phosphatidylcholine-d22 (DHPC) and the long chain 1,2-dimyristoyl-sn-glycero-3-phosphatidylcholine-d54 (DMPC) in the molar ratio of 2:1 in H2O. The […] were prepared by substituting 10 mol % of 1,2-dimyristoyl-sn-glycero-3-phospho-1-glycerol-d54 (DMPG) for DMPC. The glycopeptide to bicelle ratio was 1:25. After the glycopeptide was added to the bicelle solution, the system was submitted to a series o f three freeze/thaw/slight vortex shaking cycles. The pH of the each sample was adjusted to 4.5 by using DCl or NaOD as necessary. TSP (3-(trimethylsilyl)-d4-propionic acid) was added as an internal standard. The experiments in F3CCD2OD/H2O mixtures were at 293 K and for experiments in micelles/bicelles were at 298 or 311 K. Two-dimensional double quantum filtered correlation (DQF-COSY), rotating-frame Overhauser enhancement^56 (ROESY), Nuclear Overhauser enhancement^57 (NOESY), and total correlation spectra^58 (TOCSY) were acquired using standard pulse sequences and processed using XWINNMR (Bruker Inc) and FELIX2000 (Accelrys Inc, San Diego, Calif.), Mixing times for TOCSY spectra were either 80 or 100 ms. Mixing times for ROESY spectra were 150 or 250 ms, and for NOESY spectra were 200 or 300 ms. All experiments were 750 increments in t1, 16/32/64 scans each, 1.5 s relaxation delay, size 2 or 4K, and the spectral processing was with shifted sine bell window multiplications in both dimensions.
αCH Chemical Shift Index. […] At this point there is no accepted random coil αCH values for glycosylated serine, CSI values for this position are uncertain. The conformational shift values for all solvents were obtained using the random coil values described by Wright and co-workers.^72 Although, these reference shifts were obtained at pH=5.0 at 4.2° C., they appear to be very insensitive to the conditions, as very small deviations (±0.04) were observed when random coil values are obtained at pH=7.0 at 35° C. by Wuthrich and co-workers.^68 The quantification of secondary structure based on αCH chemical shifts is neglected in the literature because various contributions cannot be strictly accounted for, such as electrostatic effects, ring current shifts, and other magnetic anisotropies. However, it is possible to make qualitative comparison of helical content between closely related (glyco)peptides. Since the 3rd generation glycopeptides differ by only one amino acid at position 6, the helical content was obtained based on the αCH chemical shift values (Table 3). The method described by Gierasch and co-workers^69a was used. First, the average conformational shift was calculated for each glycopeptide by adding all upfield shifts in the helical regions and dividing by the total number of peptide bonds. Then, to obtain the overall helical content for each glycopeptide, the average conformational shift was divided by 0.35 ppm, which was assigned for 100% helicity. Since, there are no random coil values available for β-Alanine and glycosylated serine residues, they were not included in the calculation. The helicogenic Aib residue lacks an α-proton, and there was no correction included in the calculation for the helicity provided by Aib residue. The helical content obtained by this method correlated with the helical content obtained by CD. […]

δ opioid receptor, sequence (P41143 whole entry): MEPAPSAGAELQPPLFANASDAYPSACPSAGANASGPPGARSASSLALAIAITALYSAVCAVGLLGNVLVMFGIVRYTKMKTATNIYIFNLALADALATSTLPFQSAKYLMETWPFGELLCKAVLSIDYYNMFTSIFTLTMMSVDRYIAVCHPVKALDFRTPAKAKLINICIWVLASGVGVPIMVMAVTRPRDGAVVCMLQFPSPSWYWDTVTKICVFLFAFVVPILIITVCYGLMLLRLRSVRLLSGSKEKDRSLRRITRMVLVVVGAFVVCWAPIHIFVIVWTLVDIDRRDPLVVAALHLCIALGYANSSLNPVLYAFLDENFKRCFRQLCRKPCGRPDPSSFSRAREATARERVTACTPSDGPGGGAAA
μ opioid receptor, sequence (P35372 whole entry): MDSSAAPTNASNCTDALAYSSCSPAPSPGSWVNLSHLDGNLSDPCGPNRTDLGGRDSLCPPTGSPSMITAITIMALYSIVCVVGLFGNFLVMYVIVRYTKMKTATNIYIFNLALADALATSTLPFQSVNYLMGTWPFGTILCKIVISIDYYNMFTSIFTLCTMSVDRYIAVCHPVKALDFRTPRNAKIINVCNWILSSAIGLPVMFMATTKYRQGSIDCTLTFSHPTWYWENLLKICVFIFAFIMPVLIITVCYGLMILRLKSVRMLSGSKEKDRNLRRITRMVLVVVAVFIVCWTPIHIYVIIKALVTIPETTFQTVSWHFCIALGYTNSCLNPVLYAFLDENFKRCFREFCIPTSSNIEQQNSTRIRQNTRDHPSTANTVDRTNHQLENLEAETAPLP

For `CC(C)C[C@H](NC(=O)[C@H](C)NC(=O)[C@H](CC(N)=O)NC(=O)[C@H](Cc1ccccc1)NC(=O)[C@H](Cc1c[nH]c2ccccc12)NC(=O)[C@H](CCCCN)NC(=O)[C@H](CO[C@@H]1O[C@H](CO)[C@@H](O)[C@H](O)[C@H]1O)NC(=O)[C@H](C)NC(=O)[C@H](CC(C)C)NC(=O)[C@H](CCC(=O)O)NC(=O)CNC(=O)[C@H](CC(C)C)NC(=O)[C@H](Cc1ccccc1)NC(=O)CNC(=O)[C@H](NC(=O)[C@@H](N)Cc1ccc(O)cc1)[C@H](C)O)C(=O)N[C@@H](CCC(=O)O)C(=O)N[C@@H](CO[C@@H]1O[C@H](CO)[C@@H](O)[C@H](O)[C@H]1O)C(N)=O` (relative stereo) [Glycopeptide 2, YtGFLGELAS*KWFNALES*], the water solubility (water solubility) was “appreciable water solubility; also recorded: significant solubility in water”, the IC50 (δ opioid receptor) was 9.5 nM and the “receptor selectivity (in words)” value (δ opioid receptor; δ versus μ, receptor binding assays) was “somewhat δ-selective”. For the same molecule, the “potency relative to morphine” value ([1]; i.c.v. administration, more potent than morphine) was “roughly 18 times”, the “A50 value after i.c.v. administration” value ([1]; i.c.v., mice) was 120 pmoles per mouse and the A50 i.c.v. ([1]; i.c.v., mice) was 0.27 nmol. The IC50 (μ opioid receptor) was 144 nM and the “% α-helicity” value [2] was 67%.
For `CC(C)C[C@H](NC(=O)[C@H](C)NC(=O)[C@H](CC(N)=O)NC(=O)[C@H](Cc1ccccc1)NC(=O)[C@H](Cc1c[nH]c2ccccc12)NC(=O)[C@H](CCCCN)NC(=O)[C@H](CO[C@@H]1O[C@H](CO)[C@@H](O)[C@H](O)[C@H]1O)NC(=O)[C@H](C)NC(=O)[C@H](CC(C)C)NC(=O)[C@H](CCC(=O)O)NC(=O)CNC(=O)[C@H](CC(C)C)NC(=O)[C@H](Cc1ccccc1)NC(=O)CNC(=O)[C@H](NC(=O)[C@@H](N)Cc1ccc(O)cc1)[C@H](C)O)C(=O)N[C@@H](CCC(=O)O)C(N)=O` (relative stereo) [Glycopeptide 1, YtGFLGELAS*KWFNALE], the water solubility (water solubility) was “H2O insoluble” and the “% α-helicity” value [2] was 85%.
`CC(C)C[C@H](NC(=O)[C@H](CO[C@@H]1O[C@H](CO)[C@@H](O)[C@H](O)[C@H]1O)NC(=O)[C@H](CCCCN)NC(=O)[C@H](CC(C)C)NC(=O)[C@H](C)NC(=O)[C@H](CCCCN)NC(=O)[C@H](CCC(=O)O)NC(=O)C(C)(C)NC(=O)[C@H](CC(C)C)NC(=O)[C@H](CC(N)=O)NC(=O)[C@@H]1CCCN1C(=O)[C@H](CC(C)C)NC(=O)[C@H](Cc1ccccc1)NC(=O)CNC(=O)[C@H](NC(=O)[C@@H](N)Cc1ccc(O)cc1)[C@H](C)O)C(N)=O` (relative stereo) [Glycopeptide 9, YtGFLPNLBEKALKS*L] showed a Kd [3] of 7 to 8 nM, an IC50 (δ opioid receptor) of 6.15 nM and an A50 i.c.v. ([1]; i.c.v., mice) of 0.030 nmol. For the same molecule, the IC50 (μ opioid receptor) was 90.8 nM, the “% α-helicity by CD” value ([2]; solvent Bicelle A (anionic bicelles)) was 25% and the “% α-helicity by CD” value ([2]; solvent H2O) was greater than 1%. The “% α-helicity by CD” value ([2]; solvent SDS micelles) was 24%, the “% α-helicity by CD” value ([2]; solvent TFE) was 18% and the BBB uptake [4] was 0.390 microliters per min per gram of cortex. For the same molecule, the “blood brain barrier penetration (in words)” value [4] was “efficiently cross the blood brain barrier; also recorded: much better BBB penetration rates; also recorded: best BBB penetration”, the “% α-helicity by NMR” value ([5]; solvent Bicelle A) was 44% and the “% α-helicity by NMR” value ([5]; solvent H2O) was 20%. For the same molecule, the “% α-helicity by NMR” value ([5]; solvent SDS micelles) was 46% and the “% α-helicity by NMR” value ([5]; solvent TFE) was 30%.
With `CC(C)C[C@H](NC(=O)[C@H](C)NC(=O)[C@H](CC(N)=O)NC(=O)[C@H](Cc1ccccc1)NC(=O)[C@H](Cc1c[nH]c2ccccc12)NC(=O)[C@H](CCCCN)NC(=O)[C@H](CO[C@@H]1O[C@H](CO)[C@@H](O)[C@H](O)[C@H]1O)NC(=O)[C@H](C)NC(=O)[C@H](CC(C)C)NC(=O)[C@H](CCC(=O)O)NC(=O)CNC(=O)[C@H](CC(C)C)NC(=O)[C@H](Cc1ccccc1)NC(=O)CNC(=O)[C@H](NC(=O)[C@@H](N)Cc1ccc(O)cc1)[C@H](C)O)C(=O)N[C@@H](CCC(=O)O)C(=O)N[C@@H](CO[C@@H]1O[C@H](CO)[C@@H](O)[C@H](O)[C@H]1O)C(=O)N[C@@H](Cc1ccccc1)C(=O)N[C@@H](Cc1c[nH]c2ccccc12)C(N)=O` (relative stereo) [Glycopeptide 4, YtGFLGELAS*KWFNALES*FW] the water solubility (water solubility) was “H2O insoluble” and the “% α-helicity” value [2] was 82%.
With `CC(C)C[C@H](NC(=O)[C@H](C)NC(=O)[C@H](CC(N)=O)NC(=O)[C@H](Cc1ccccc1)NC(=O)[C@H](Cc1c[nH]c2ccccc12)NC(=O)[C@H](CCCCN)NC(=O)[C@H](CO[C@@H]1O[C@H](CO)[C@@H](O)[C@H](O)[C@H]1O)NC(=O)[C@H](C)NC(=O)[C@H](CC(C)C)NC(=O)[C@H](CCC(=O)O)NC(=O)CNC(=O)[C@H](CC(C)C)NC(=O)[C@H](Cc1ccccc1)NC(=O)CNC(=O)[C@H](NC(=O)[C@@H](N)Cc1ccc(O)cc1)[C@H](C)O)C(=O)N[C@@H](CCC(=O)O)C(=O)N[C@@H](CO[C@@H]1O[C@H](CO)[C@@H](O)[C@H](O)[C@H]1O)C(=O)N[C@@H](Cc1ccccc1)C(N)=O` (relative stereo) [Glycopeptide 3, YtGFLGELAS*KWFNALES*F] the water solubility (water solubility) was “H2O insoluble” and the “% α-helicity” value [2] was 65%.
